One assay deals with T1, HIPK2.
T1 construct: human HIPK2 (residues 160–563, UniProt Q9H2X6); made in house; host or cells: Sf9 insect cells
The assay can be described thus: radioactive in vitro kinase assay, HIPK2. To be noted: 0, 0.1, 1, 10, 100 μM compound, 0.2 μM kinase, 0.2 mM ATP. Format: biochemical, human. As to the method:
(§1) Radioactive kinase activity assays were performed in a total volume of 15 μl per sample in kinase assay buffer (50 mM Hepes/pH 7.6, 34 mM KCl, 7 mM MgCl2, 5 mM β-glycerol phosphate, and 2.5 mM dithioerythritol). Preincubation of 0.2 μM or 0.02 μM recombinant protein kinase with indicated concentrations of respective inhibitor and 0.2 to 2 mM ATP containing 0.45 mCi [^32P]-γ-ATP/ml (PerkinElmer) was carried out for 5 min. Kinase reactions were started by addition of substrate protein (10 μM GST-Rb1 for Cdk4/CycD3, 10 μM GST-CTD[52] for Cdk7/CycH/MAT1, 50 μM His-c-Myc for all others) and incubated for 20 min at 30 °C in a shaking incubator at 300 rpm. For pS7-CTD[3] peptide, the substrate concentration was increased to 100 μM and assays were performed for 60 min. Reactions were terminated by the addition of EDTA to a final concentration of 50 mM. […] Radioactive counts were determined in a Beckman Liquid Scintillation Counter (Beckman Coulter) for 1 min. […] IC50 values were extracted from triplicate measurements by sigmoidal curve fitting using DataGraph (v. 5.0; https://www.visualdatatools.com/DataGraph/) or were determined by applying the Morrison quadratic equation for tight binding inhibitors using GraphPad Prism 10 (https://www.graphpad.com/) ([40]).

The next assay deals with Cdk8/CycC. The assay can be described thus: radioactive in vitro kinase assay, Cdk8/CycC. Format: biochemical, human. To be noted: 0, 0.1, 1, 10, 100 μM compound, 0.2 μM kinase, 0.2 mM ATP. As to the method: as §1
Assay [1] addresses T2, Cdk13/CycK (Homo sapiens, UniProt Q14004).
T2 construct: The kinase domain of human Cdk13 (residues 694–1039, UniProt Q14004); made in house; host or cells: Sf9 insect cells, co-expressed with CAK1
In words: SPR single-cycle kinetics, active Cdk13*/CycK. The settings on record: T-loop phosphorylated active kinase (CAK1 coexpressed), 1:1 binding model. As to the method:
The protein kinases were immobilized on a CM5 chip using the amine-coupling method. […] The fully active and T-loop phosphorylated kinase preparations of Cdk12∗/CycK and Cdk13∗/CycK were obtained through coexpression with Cdk-activating kinase 1 (CAK1) from Saccharomyces cerevisiae. […] For comparison, we measured the affinity of NVP-2 for active kinases Cdk12∗/CycK and its proposed target Cdk9/CycT1 by SPR.
SPR experiments were conducted on a Biacore 8K (Cytiva) device. The system was equilibrated in running buffer (20 mM Tris pH 8, 150 mM NaCl, 1 mM tris(2-carboxyethyl)phosphine, 0.1 mM MgCl2, 0.05% Tween20, and 2% DMSO) at 25 °C. Flow cell 1 and 2 surfaces of a CM5 sensor chip (Cytiva) were conditioned with 50 mM NaOH at a flow rate of 30 μl/min for 15 s and subsequently activated with a 1:1 mix of 0.1 M N-hydroxysuccinimide (NHS) and 0.1 M 3-(N,N-dimethylamino) propyl-N-ethyl-carbodiimide (EDC) at a flow rate of 10 μl/min for 7 min. The flow system was washed with 1 M enthanolamine (pH 8). WT and mutant kinases Cdk12/CycK, Cdk13/CycK and Cdk9/CycT1 were diluted in Mes (pH 6.5) to a final concentration of 2 μM. Immobilization of kinases was performed in running buffer without DMSO using the amine coupling method on flow cell 2 surface for 160 s at a flow rate of 10 μl/min. Free binding sites were blocked with 1 M ethanolamine pH 8.0 (10 μl/min) for 7 min. […]

Another assay relates to T3, HIPK1.
T3 construct: human HIPK1 (residues 154–554, UniProt Q86Z02); made in house; host or cells: Sf9 insect cells
The assay can be described thus: radioactive in vitro kinase assay, HIPK1. Format: biochemical, human. The settings on record: 0, 0.1, 1, 10, 100 μM compound, 0.2 μM kinase, 0.2 mM ATP. As to the method:
as §1

Another assay deals with T4, Cdk9/CycT1 (Homo sapiens, UniProt P50750).
T4 construct: Full-length, human, WT Cdk9 (residues 1–372, UniProt P50750); made in house; host or cells: Cdk9: Sf9 insect cells; CycT1: E. coli
T4 sequence (P50750 whole entry, the tested form may be a part): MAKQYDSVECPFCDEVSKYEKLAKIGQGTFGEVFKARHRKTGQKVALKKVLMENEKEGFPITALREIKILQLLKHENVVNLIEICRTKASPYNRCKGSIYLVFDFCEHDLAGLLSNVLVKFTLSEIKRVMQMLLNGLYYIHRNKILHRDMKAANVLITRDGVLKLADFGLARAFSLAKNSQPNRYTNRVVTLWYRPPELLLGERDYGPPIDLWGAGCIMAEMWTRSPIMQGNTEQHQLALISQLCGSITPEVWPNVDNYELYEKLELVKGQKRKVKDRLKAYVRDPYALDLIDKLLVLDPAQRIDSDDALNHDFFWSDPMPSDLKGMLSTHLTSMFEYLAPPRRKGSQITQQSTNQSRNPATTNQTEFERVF
T4 sequence (O60563 1-272 partner limits assumed): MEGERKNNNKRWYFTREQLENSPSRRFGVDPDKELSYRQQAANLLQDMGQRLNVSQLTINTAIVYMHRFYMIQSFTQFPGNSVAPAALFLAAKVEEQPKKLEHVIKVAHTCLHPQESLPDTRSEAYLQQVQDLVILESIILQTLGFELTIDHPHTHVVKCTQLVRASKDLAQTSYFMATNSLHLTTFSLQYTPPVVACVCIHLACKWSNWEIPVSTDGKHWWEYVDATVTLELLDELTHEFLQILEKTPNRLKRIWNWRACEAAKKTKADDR
In words: radioactive in vitro kinase assay, Cdk9/CycT1. Format: biochemical. The settings on record: 0, 0.1, 1, 10, 100 μM compound, 0.2 μM kinase, 0.2 mM ATP. As to the method:
as §1

The target of assay [2] is T2, Cdk13/CycK. In words: radioactive in vitro kinase assay, Cdk13/CycK. The assay is classed as biochemical. As to the method: To a concentration of 0.2 μM kinase and 0.2 mM ATP, a compound concentration ranging from 0.1 nM to 1 mM was applied. Kinase reactions were started by the addition of 100 μM CTD peptide containing three hepta-repeats continuously prephosphorylated at position S7 (pS7-CTD[3]) and terminated after 60 min incubation time. In vitro IC50-values were determined by applying a sigmoidal fit to dose-response measurements (Fig. 1A). […] The Michaelis–Menten constants (KM) for ATP were determined as 17.5 μM for Cdk12/CycK and 12.6 μM for Cdk13/CycK, respectively. […] These values are in accordance with the values derived from sigmoidal curve fitting.
Radioactive kinase activity assays were performed in a total volume of 15 μl per sample in kinase assay buffer (50 mM Hepes/pH 7.6, 34 mM KCl, 7 mM MgCl2, 5 mM β-glycerol phosphate, and 2.5 mM dithioerythritol). […] Radioactive counts were determined in a Beckman Liquid Scintillation Counter (Beckman Coulter) for 1 min. […] IC50 values were extracted from triplicate measurements by sigmoidal curve fitting using DataGraph (v. 5.0; https://www.visualdatatools.com/DataGraph/) or were determined by applying the Morrison quadratic equation for tight binding inhibitors using GraphPad Prism 10 (https://www.graphpad.com/) ([40]).

Where two headings read alike, the source gives them in different places.

T2 sequence (Q14004 694-1039): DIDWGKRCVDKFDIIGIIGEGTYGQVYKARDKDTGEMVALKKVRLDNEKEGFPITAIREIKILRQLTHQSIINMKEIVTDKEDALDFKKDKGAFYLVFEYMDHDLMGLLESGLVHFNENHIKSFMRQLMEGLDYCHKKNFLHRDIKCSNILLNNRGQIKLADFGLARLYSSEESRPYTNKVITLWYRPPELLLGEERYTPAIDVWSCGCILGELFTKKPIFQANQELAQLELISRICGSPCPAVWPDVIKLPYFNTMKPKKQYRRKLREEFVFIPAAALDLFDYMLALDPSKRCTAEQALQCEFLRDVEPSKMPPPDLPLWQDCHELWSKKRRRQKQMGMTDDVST
T2 sequence (O75909 1-267 partner limits assumed): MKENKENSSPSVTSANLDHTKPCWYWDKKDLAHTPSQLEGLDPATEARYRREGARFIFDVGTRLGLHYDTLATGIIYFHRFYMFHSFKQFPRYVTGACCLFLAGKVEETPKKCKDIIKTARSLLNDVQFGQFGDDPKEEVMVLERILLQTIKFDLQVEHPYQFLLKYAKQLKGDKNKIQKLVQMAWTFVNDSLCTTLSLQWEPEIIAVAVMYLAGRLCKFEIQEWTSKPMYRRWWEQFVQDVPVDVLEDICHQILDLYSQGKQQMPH

Usually Kd stands for the free concentration of one partner at which half of the binding sites on the other are occupied at equilibrium, for simple one-to-one binding. Higher therefore signals weaker binding. `Cn1cc(-n2cnc3c(NCc4nc5cc(Cl)c(Cl)cc5[nH]4)nc(N4CCOCC4)nc32)cn1` [SR-4835]: the “inhibition of HIPK2 activity” value with HIPK2 was “not inhibited”. Further, the “inhibition of Cdk8 activity” value in the assay with Cdk8/CycC is given as “no inhibitory activity”. Further, the Kd at Cdk13/CycK [1] came out at 168 nM. The “inhibition of HIPK1 activity” value in the assay on HIPK1 is “not inhibited”. Besides, the “inhibition of Cdk9 activity” value on Cdk9/CycT1 is “no inhibitory activity”. Besides, the IC50 is 366 to 400 nM on Cdk13/CycK [2] (0.2 μM and 0.02 μM kinase, c-Myc substrate, Morrison quadratic equation fit, read-out: IC50 Cdk13/CycK, Morrison quadratic equation); 366 nM on Cdk13/CycK [2] (0.2 μM kinase, 0.2 mM ATP, 100 μM pS7-CTD[3], 60 min, sigmoidal fit, read-out: IC50 Cdk13/CycK on pS7-CTD[3]).

The values are drawn from paper PMC10767194 (The Journal of Biological Chemistry, 2023).
